Experimental data as given in patent US10562912B2 (C&C Research Laboratories, priority 2013, dated 2020).

Columns and labels:
Type in all cases: cell-based
[1] = system: HEL92.1.7; assay: Cell growth inhibition assay, blood cancer cell line HEL92.1.7; conditions: Homo sapiens, HEL 92.1.7, HEL92.1.7 blood cancer cell line
Method in brief: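 Cells were seeded at 3,000/well (HCT116, DU-145) or 5,000/well (SW626 and the others) and exposed to serial compound dilutions for 72 to 96 h at 37 °C under 5% CO2. Viability was read as CellTiter-Glo luminescence against 0.1% DMSO and cell-free wells.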

[2] = target: T1, STAT3 (Homo sapiens, UniProt P40763); assay: STAT3 reporter gene assay (luciferase), LNCaP stable cell line (pSTAT3-TA-luc), IL-6 stimulation
T1 construct: plasmid pSTAT3-TA-luc), which contains a stably operating STAT3 promoter; endogenous in cells
T1 sequence (P40763 whole entry): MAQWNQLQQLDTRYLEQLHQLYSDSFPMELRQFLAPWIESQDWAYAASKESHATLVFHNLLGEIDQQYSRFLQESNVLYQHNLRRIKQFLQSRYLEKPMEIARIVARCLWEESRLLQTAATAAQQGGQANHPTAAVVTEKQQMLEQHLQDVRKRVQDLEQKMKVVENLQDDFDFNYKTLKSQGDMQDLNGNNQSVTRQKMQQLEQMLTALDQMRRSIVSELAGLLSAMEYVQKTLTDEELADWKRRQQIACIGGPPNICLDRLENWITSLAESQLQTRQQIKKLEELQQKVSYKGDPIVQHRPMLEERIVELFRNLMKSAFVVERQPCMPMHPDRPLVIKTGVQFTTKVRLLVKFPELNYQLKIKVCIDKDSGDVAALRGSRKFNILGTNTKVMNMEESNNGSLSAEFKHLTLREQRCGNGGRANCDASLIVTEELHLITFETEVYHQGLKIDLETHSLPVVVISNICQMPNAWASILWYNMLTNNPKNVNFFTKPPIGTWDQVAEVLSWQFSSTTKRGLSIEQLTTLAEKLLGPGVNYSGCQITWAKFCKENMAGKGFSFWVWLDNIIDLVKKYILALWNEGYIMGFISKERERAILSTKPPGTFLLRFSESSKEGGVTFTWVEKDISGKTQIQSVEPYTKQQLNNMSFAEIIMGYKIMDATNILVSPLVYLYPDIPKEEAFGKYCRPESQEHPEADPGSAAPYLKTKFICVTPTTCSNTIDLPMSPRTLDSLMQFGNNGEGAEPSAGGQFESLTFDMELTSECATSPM
Method in brief: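 LNCaP cells stably carrying pSTAT3-TA-luc, in RPMI1640 with 3% DCC-FBS, were treated with compound and then stimulated with 10 ng/mL IL-6 for 24–48 h at 37 °C. Luciferase activity was measured in lysates. A parallel plate measured viability by CellTiter-Glo, with stimulated 0.1% DMSO wells as the positive control.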

[3] = system: DU-145; assay: Cell growth inhibition assay, prostate cancer cell line DU-145; conditions: Homo sapiens, DU-145 prostate cancer cell line
Method in brief: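 Seed DU-145/HCT116 3,000 cells/well, SW626 5,000 cells/well; add compound dilution series; incubate 72–96 h, 37° C., 5% CO2; microscope check for precipitate; CellTiter-Glo, luminescence. Blank = no cells; vehicle = 0.1% DMSO.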

[4] = system: LNCaP; assay: Cell growth inhibition assay, prostate cancer cell line LNCaP (medium with 10 ng/mL IL-6); conditions: Homo sapiens, medium supplemented with 10 ng/mL of IL-6, 10,000 cells/well

SMILES	IC50 [1]	IC50 [2]	IC50 [3]	IC50 [4]
CC(C)Oc1cc(OC(F)(F)F)cc(C(C)(C)c2cc(Cl)cc(N(C)C(=O)c3cc4cc(N(C)S(C)(=O)=O)c(F)cc4s3)c2)c1 [Example 216, N-(3-chloro-5-(2-(3-isopropoxy-5-(trifluoromethoxy)phenyl)propan-2-yl)phenyl)-6-fluoro-N-methyl-5-(N-methylmethylsulfonamido)benzo[b]thiophene-2-carboxamide]	0.95 µM	0.38 µM	0.3 µM	1.1 µM
CC(C)Oc1cc(OC(F)(F)F)cc(C(C)(C)c2cc(Cl)cc(NC(=O)c3cc4cc(N(CCN5CCOCC5)S(C)(=O)=O)c(F)cc4s3)c2)c1 [Example 217, N-(3-chloro-5-(2-(3-isopropoxy-5-(trifluoromethoxy)phenyl)propan-2-yl)phenyl)-6-fluoro-5-(N-(2-morpholinoethyl)methylsulfonamido)benzo[b]thiophene-2-carboxamide]	> 1.1 µM	2.06 µM	0.58 µM	> 1.1 µM
CC(C)Oc1cc(OC(F)(F)F)cc(C(C)(C)c2cc(Cl)cc(N(CCN3CCOCC3)C(=O)c3cc4cc(N(CCN5CCOCC5)S(C)(=O)=O)c(F)cc4s3)c2)c1 [Example 218, N-(3-chloro-5-(2-(3-isopropoxy-5-(trifluoromethoxy)phenyl)propan-2-yl)phenyl)-6-fluoro-N-(2-morpholinoethyl)-5-(N-(2-morpholinoethyl)methylsulfonamido)benzo[b]thiophene-2-carboxamide]	> 1.1 µM	> 10 µM	> 1.1 µM	7.7 µM
CC(C)Oc1cc(OC(F)(F)F)cc(C(C)(C)c2cc(Cl)cc(NC(=O)c3cc4cc(N(CCN(C)C)S(C)(=O)=O)c(F)cc4s3)c2)c1 [Example 219, N-(3-chloro-5-(2-(3-isopropoxy-5-(trifluoromethoxy)phenyl)propan-2-yl)phenyl)-5-(N-(2-(dimethylamino)ethyl)methylsulfonamido)-6-fluorobenzo[b]thiophene-2-carboxamide]	0.9 µM	1.19 µM	0.18 µM	0.19 µM
COc1cc(OC(F)(F)F)cc(-c2cc(Cl)cc(NC(=O)c3cc4cc(NS(C)(=O)=O)ccc4s3)c2)c1 [Example 324, N-(5-chloro-3′-methoxy-5′-(trifluoromethoxy)-[1,1′-biphenyl]-3-yl)-5-(methylsulfonamido)benzo[b]thiophene-2-carboxamide]	0.83 µM	0.53 µM	0.4 µM	0.48 µM
COc1cc(OC(F)(F)F)cc(-c2cc(Cl)cc(NC(=O)c3cc4cc(NS(=O)(=O)C5CCOC5)ccc4s3)c2)c1 (stereo not shown) [Example 328, N-(5-chloro-3′-methoxy-5′-(trifluoromethoxy)-[1,1′-biphenyl]-3-yl)-5-((tetrahydrofuran)-3-sulfonamido)benzo[b]thiophene-2-carboxamide]	0.5 µM	0.34 µM	0.39 µM	0.34 µM
CS(=O)(=O)Nc1ccc2sc(C(=O)Nc3cc(Br)cc(S(=O)(=O)N4CCc5ccc(F)cc5C4)c3)cc2c1 [Example 418, N-(3-bromo-5-((7-fluoro-3,4-dihydroisoquinolin-2(1H)-yl)sulfonyl)phenyl)-5-(methylsulfonamido)benzo[b]thiophene-2-carboxamide]	2.2 µM	0.84 µM	0.98 µM	1.6 µM
CS(=O)(=O)Nc1ccc2sc(C(=O)Nc3cc(Br)cc(S(=O)(=O)N4CCc5c(F)cc(F)cc5C4)c3)cc2c1 [Example 419, N-(3-bromo-5-((5,7-difluoro-3,4-dihydroisoquinolin-2(1H)-yl)sulfonyl)phenyl)-5-(methylsulfonamido)benzo[b]thiophene-2-carboxamide]	1.8 µM	0.67 µM	0.65 µM	1 µM
CS(=O)(=O)Nc1ccc2sc(C(=O)Nc3cc(Br)cc(S(=O)(=O)N4CCC(F)(F)CC4)c3)cc2c1 [Example 420, N-(3-bromo-5-((4,4-difluoropiperidin-1-yl)sulfonyl)phenyl)-5-(methylsulfonamido)benzo[b]thiophene-2-carboxamide]	2.4 µM	0.82 µM	0.95 µM	1.7 µM
CS(=O)(=O)Nc1ccc2sc(C(=O)Nc3cc(Cl)cc(Nc4ccc(F)cc4F)c3)cc2c1 [Example 438, N-(3-chloro-5-((2,4-difluorophenyl)amino)phenyl)-5-(methylsulfonamido)benzo[b]thiophene-2-carboxamide]	0.48 µM	0.2 µM	0.16 µM	0.42 µM
CN(c1cc(Cl)cc(NC(=O)c2cc3cc(NS(C)(=O)=O)ccc3s2)c1)c1ccc(F)cc1F [Example 439, N-(3-chloro-5-((2,4-difluorophenyl)(methyl)amino)phenyl)-5-(methylsulfonamido)benzo[b]thiophene-2-carboxamide]	0.64 µM	0.053 µM	0.089 µM	0.15 µM
CS(=O)(=O)Nc1ccc2sc(C(=O)Nc3cc(Cl)cc(Oc4ccc(F)cc4F)c3)cc2c1 [Example 444, N-(3-chloro-5-(2,4-difluorophenoxy)phenyl)-5-(methylsulfonamido)benzo[b]thiophene-2-carboxamide]	0.65 µM	0.083 µM	0.13 µM	0.24 µM

Now those with a lower IC50 [1], led by results:

IC50 [1]	IC50 [2]	IC50 [3]	IC50 [4]	SMILES
0.049 µM	0.028 µM	0.011 µM	0.021 µM	CS(=O)(=O)Nc1cc2cc(C(=O)Nc3cc(Cl)cc(-c4ccc(F)cc4F)c3)sc2cc1F [Example 322, N-(5-chloro-2′,4′-difluoro-[1,1′-biphenyl]-3-yl)-6-fluoro-5-(methylsulfonamido)benzo[b]thiophene-2-carboxamide]
0.097 µM	0.11 µM	0.035 µM	0.063 µM	CS(=O)(=O)Nc1ccc2sc(C(=O)Nc3cc(Cl)cc(-c4ccc(F)cc4F)c3)cc2c1 [Example 323, N-(5-chloro-2′,4′-difluoro-[1,1′-biphenyl]-3-yl)-5-(methylsulfonamido)benzo[b]thiophene-2-carboxamide]
0.39 µM	0.24 µM	0.15 µM	0.16 µM	COc1cc(OC(F)(F)F)cc(-c2cc(Cl)cc(NC(=O)c3cc4cc(NS(C)(=O)=O)c(F)cc4s3)c2)c1 [Example 325, N-(5-chloro-3′-methoxy-5′-(trifluoromethoxy)-[1,1′-biphenyl]-3-yl)-6-fluoro-5-(methylsulfonamido)benzo[b]thiophene-2-carboxamide]
0.26 µM	0.1 µM	0.064 µM	0.14 µM	COc1cc(OC(F)(F)F)cc(-c2cc(Cl)cc(NC(=O)c3cc4cc(N(C)S(C)(=O)=O)c(F)cc4s3)c2)c1 [Example 326, N-(5-chloro-3′-methoxy-5′-(trifluoromethoxy)-[1,1′-biphenyl]-3-yl)-6-fluoro-5-(N-methylmethylsulfonamido)benzo[b]thiophene-2-carboxamide]
0.082 µM	0.041 µM	0.034 µM	0.088 µM	O=C(Nc1cc(Cl)cc(-c2ccc(F)cc2F)c1)c1cc2cc(NS(=O)(=O)C3CCOC3)ccc2s1 (stereo not shown) [Example 327, N-(5-chloro-2′,4′-difluoro-[1,1′-biphenyl]-3-yl)-5-((tetrahydrofuran)-3-sulfonamido)benzo[b]thiophene-2-carboxamide]
0.009 µM	0.01 µM	0.004 µM	0.008 µM	CN(c1cc2cc(C(=O)Nc3cc(Cl)cc(-c4ccc(F)cc4F)c3)sc2cc1F)S(C)(=O)=O [Example 329, N-(5-chloro-2′,4′-difluoro-[1,1′-biphenyl]-3-yl)-6-fluoro-5-(N-methylmethylsulfonamido)benzo[b]thiophene-2-carboxamide]
0.057 µM	0.029 µM	0.005 µM	0.011 µM	O=C(Nc1cc(Cl)cc(-c2ccc(F)cc2F)c1)c1cc2cc(NS(=O)(=O)C3CCOC3)c(F)cc2s1 (stereo not shown) [Example 330, N-(5-chloro-2′,4′-difluoro-[1,1′-biphenyl]-3-yl)-6-fluoro-5-((tetrahydrofuran)-3-sulfonamido)benzo[b]thiophene-2-carboxamide]
0.014 µM	0.012 µM	0.006 µM	0.006 µM	CC(C)Oc1cc(OC(F)(F)F)cc(C2(c3cc(Cl)cc(NC(=O)c4cc5cc(N(C)S(C)(=O)=O)c(F)cc5s4)c3)CC2)c1 [Example 430, N-(3-chloro-5-(1-(3-isopropoxy-5-(trifluoromethoxy)phenyl)cyclopropyl)phenyl)-6-fluoro-5-(N-methylmethylsulfonamido)benzo[b]thiophene-2-carboxamide]
0.007 µM	0.053 µM	0.038 µM	0.034 µM	CC(C)Oc1cc(OC(F)(F)F)cc(C2(c3cc(Cl)cc(NC(=O)c4cc5cc(NS(C)(=O)=O)ccc5s4)c3)CC2)c1 [Example 431, N-(3-chloro-5-(1-(3-isopropoxy-5-(trifluoromethoxy)phenyl)cyclopropyl)phenyl)-5-(methylsulfonamido)benzo[b]thiophene-2-carboxamide]
0.085 µM	0.036 µM	0.012 µM	0.021 µM	CN(c1ccc(Cl)cc1)c1cc(Cl)cc(NC(=O)c2cc3cc(NS(C)(=O)=O)ccc3s2)c1 [Example 440, N-(3-chloro-5-((4-chlorophenyl)(methyl)amino)phenyl)-5-(methylsulfonamido)benzo[b]thiophene-2-carboxamide]
